“And” between values parts separate entries of the source, which are not always exact repeats. Equal entries are not always repeated.

Assay [1] concerns the target T1, human BTK (Homo sapiens, UniProt Q06187).
T1 construct: purchased Reaction Biology Corp
The assay can be described thus: In vitro BTK kinase activity, 33P isotope-labeled kinase assay. Type of assay: biochemical. The method, then: The IC50 values were determined using ^33P isotope-labeled kinase activity assay (Reaction Biology Corp) to evaluate the inhibitory ability of the tested compounds on human BTK.
Buffer conditions: 20 mM Hepes (pH 7.5), 10 mM MgCl2, 1 mM EGTA, 0.02% Brij35, 0.02 mg/mL BSA, 0.1 mM Na3VO4, 2 mM DTT, 1% DMSO.
Test procedure: At room temperature, the tested compound was dissolved in DMSO and a 10 mM solution was prepared for use. The substrate was dissolved in a newly prepared buffer solution, and the BTK kinase was added thereto and mixed evenly. The compound dissolved in DMSO was added to the kinase reaction mixture through Echo 550 (Acoustic technology; Nanoliter range). After incubation for 20 minutes at room temperature, ^33P-ATP was added to initiate the reaction. The reaction was carried out at room temperature for 2 hours, and the radioactivity of the reaction solution drop was detected by filtration-binding method with P81 ion exchange filter paper. The kinase activity data were expressed by comparing the kinase activity of the group containing the tested compound with the kinase activity of the blank group (only containing DMSO), and the IC50 value was obtained by curve fitting by Prism4 software (GraphPad), the experimental results were shown in Table 3.

Assay [2] has as its system TNF-α secretion induced by LPS. The assay can be described thus: TNF-α secretion model induced by LPS in SD rats. The class given is in vivo. The following applies: 25 mpk oral gavage 0.5 h before 1 mg/kg LPS i.p., plasma 2 hours after modeling, p<0.01. The method, then: a) The pharmacokinetic effect of compound WX009 on TNF-α secretion model induced by LPS in SD rats.
Female SD rats were randomly divided into four groups according to the animal weight, namely Sham group, Model group and Dexamethasone (dosage: 0.5 mpk, DEX-0.5 mpk) group and tested drug WX009 (dosage: 25 mpk, WX009-25 mpk) group, with 6-9 animals in each group. The model was established by a single intraperitoneal injection of 1 mg/kg LPS. Dexamethasone and tested drug were given orally by gavage 0.5 h before modeling. After modeling for 2 hours, the animals were weighed, and all the experimental animals were anesthetized by intraperitoneal injection of pentobarbital sodium. An anticoagulant whole blood was collected through sublingual vein, anticoagulant: EDTA-K2, the plasma was separated, and the plasma volume was about 200 μL, which was used to detect the content of inflammatory factor, TNF-α.

The test system of assay [3] is human diffuse large B lymphoma TMD8 cell subcutaneous xenograft. The assay can be described thus: TMD8 subcutaneous xenograft tumor model (WX009 study). The class given is in vivo, SCID mouse. Conditions: 18th day after administration. The text has this:
The formula for calculating the tumor inhibition rate TGI (%)=[1−(average tumor volume at the end of administration in a treatment group-average tumor volume at the beginning of administration in the treatment group))/(average tumor volume at the end of treatment in solvent control group-average tumor volume at the beginning of treatment in solvent control group)]×100%.

For assay [4] the test system is unchanged. The assay can be described thus: TMD8 subcutaneous xenograft tumor model (WX017 and WX027 study). Conditions: 11th day after administration.
Protocol: a) TMD8 cells were cultured in RPMI-1640 medium containing 10% FBS and maintained in a 37° C. saturated humidity incubator with 5% CO2. TMD8 cells in logarithmic period were collected, resuspended in RPMI-1640 basal medium, and Matrigel was added at 1:1, and the cell concentration was adjusted to 4×10^7/mL. Under aseptic conditions, 0.1 mL of cell suspension was inoculated under the skin of the right back of SCID mice, and the inoculation concentration was 4×10^6/0.1 mL/mouse.
When the tumor grew to a certain size, the animals with too large, too small or irregular tumor shape were excluded, and the animals with tumor volume of 108.76-188.11 mm^3 were selected. According to the tumor volume, the animals were divided into 10 groups by random block method, with 6 mice in each group, and the average tumor volume was about 152.11 mm^3. The health status and death of animals were monitored every day, and routine examinations included observing the effects of tumor growth and drug treatment on daily behaviors of animals, such as behavioral activities, food intake and water intake, weight change (weight was measured twice a week), tumor size (tumor volume was measured twice a week), appearance signs or other abnormal conditions.
The formula for calculating tumor volume (TV) was: 1/2×a×b^2, where a and b were the measured length and width of the tumor respectively. The formula for calculating the tumor inhibition rate TGI (%)=[1−(average tumor volume at the end of administration in a treatment group-average tumor volume at the beginning of administration in the treatment group))/(average tumor volume at the end of treatment in solvent control group-average tumor volume at the beginning of treatment in solvent control group)]×100%.
In this study, the experimental data were all expressed by Mean±SEM. Statistical analysis was based on the data of RTV at the end of the experiment and analyzed by IBM SPSS Statistics software. T test was used to analyze the comparison between two groups, and one-way ANOVA was used to analyze the comparison between three or more groups. If the variance was even (there was no significant difference in F value), Tukey's method was used to analyze it, and if the variance was uneven (there was significant difference in F value), Games-Howell method was used to test it. p<0.05 was deemed to a significant difference.

T1 sequence (Q06187 whole entry): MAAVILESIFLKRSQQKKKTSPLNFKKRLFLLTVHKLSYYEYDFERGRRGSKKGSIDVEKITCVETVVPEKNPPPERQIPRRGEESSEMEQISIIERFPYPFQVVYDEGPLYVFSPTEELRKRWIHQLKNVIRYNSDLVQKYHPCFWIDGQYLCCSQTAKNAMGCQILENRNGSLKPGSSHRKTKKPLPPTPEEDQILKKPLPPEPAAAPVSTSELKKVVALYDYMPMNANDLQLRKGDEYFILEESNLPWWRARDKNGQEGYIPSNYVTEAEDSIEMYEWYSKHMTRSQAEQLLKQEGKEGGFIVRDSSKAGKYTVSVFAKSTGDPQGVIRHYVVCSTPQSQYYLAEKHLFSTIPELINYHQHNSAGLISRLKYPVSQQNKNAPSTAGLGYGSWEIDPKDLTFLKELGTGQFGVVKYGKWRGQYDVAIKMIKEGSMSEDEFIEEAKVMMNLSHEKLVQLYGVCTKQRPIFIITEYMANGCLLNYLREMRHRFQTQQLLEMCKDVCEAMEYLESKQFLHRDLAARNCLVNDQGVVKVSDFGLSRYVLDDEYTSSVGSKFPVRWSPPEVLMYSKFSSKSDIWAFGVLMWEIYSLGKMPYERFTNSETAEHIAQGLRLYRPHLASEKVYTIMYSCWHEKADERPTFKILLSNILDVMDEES

For orientation: IC50 means the concentration at which inhibition is half-maximal. A lower IC50 goes with higher potency. Regarding `Cc1cc(-c2nc(C(=O)Nc3cn4cc(C(C)(C)O)nc4cc3-c3ccccc3)co2)ccn1` [WX009], the IC50 in assay [1] was 20.1 nM. The “TNF-α content in animal plasma compared with the Model group” value in assay [2] is on record as “significantly reduce”. Besides, the TGI in assay [3] (5 mg/kg BID PO) is 86% and 86.28%; in assay [3] (10 mg/kg BID PO) it was 85.10%; in assay [3] (20 mg/kg BID PO), 96.55%.

For the molecule `CC(C)(O)c1cn2cc(NC(=O)c3coc(-c4ccnc(N)c4)n3)c(-c3ccccc3)cc2n1` [WX017], the IC50 in assay [1] was 5.2 nM. For the same molecule, the TGI in assay [4] (3 mg/kg BID PO) is on record as 86%; in assay [4] (10 mg/kg BID PO) it was 100%; in assay [4] (20 mg/kg BID PO), 114%.

`CC(C)(O)c1cn2cc(NC(=O)c3coc(-c4ccnc(N)c4F)n3)c(-c3ccccc3)cc2n1` [WX027]: the IC50 in assay [1] is 2.9 nM. Also, the figures for the TGI in assay [4] (3 mg/kg BID PO), in assay [4] (10 mg/kg BID PO) and in assay [4] (20 mg/kg BID PO) were 78%, 90% and 104%, respectively.

The values are drawn from patent US20230391776A1, “AMIDE OXAZOLE COMPOUND” (MEDSHINE DISCOVERY INC., priority 2020, published 2023).
